Reference: US11633447B2, “Pharmaceutical composition and functional health food for preventing or treating macular degeneration” (LEMONEX INC., priority 2018, dated 2023)

Columns and labels:
[1] = system: Balb-c mice; assay: Blue light-induced macular degeneration animal model, thickness of outer nuclear layer (ONL) by H&E staining; type: in vivo; details: oral, once daily, 50 mg/kg, blue light 10,000 lux 1 hour per day for 14 days
Description: Balb-c mice (5 weeks old, males) were acclimated and bred for 2 days, and then orally administered with each of the banaba leaf extract, the guava leaf extract, the mixture thereof or lutein (50 mg/kg) once daily for 7 days. Then, after 24 hours of dark acclimatization, each of the extracts and the mixture and lutein was orally administered for 14 days, and 30 minutes later, followed by blue light irradiation at 10,000 lux for 1 hour per day. 24 hours after the blue light irradiation and the end of administration of the extract, the mice were sacrificed to an extract eyeball, and then, retinal cell protective effects were determined through tissue staining (FIG. 4).
The extracted eyeball tissue was fixed with a neutral buffered formalin solution. The fixed eyeball was washed with running water and was subjected to a dehydration process using alcohol. Thereafter, a clearing process was performed using Xylene, and proper rigidity was given to the tissue using paraffin. The eyeball was made into a predetermined shape of paraffin block, and then cut to 4 μm thickness. The cut eyeball was subjected to hematoxylin & eosin (H & E) staining. […] Then, a thickness of the outer nuclear layer (ONL) of the visual cell was measured by Image J software (National Institute of Health, […], Md., USA)), followed by counting the number of nuclei. […]

[2] = system: ARPE-19 cells; assay: Retinal pigment epithelial cell protection against blue light-induced photooxidation after A2E accumulation (cell counting kit-8 viability); type: cell-based; details: 17.04 μg/mL (30 μM) for 24 hours; 20 μM A2E; blue light 4,000 lux 10 minutes; difference control vs blue light group set to 100%
Description: Since it is already known that photooxidation occurs when retinal pigment epithelial cells accumulated with A2E are irradiated with blue light, it was confirmed whether cytotoxicity derived by irradiation with blue light after 20 μM A2E accumulation in ARPE-19 cells could be suppressed using the banaba leaf extract, guava leaf extract, and the mixture thereof. Specifically, all ARPE-19 cells were treated with A2E at a concentration of 20 μM for 24 hours, and then treated with 100 μg/mL of the banaba leaf extract, the guava leaf extract, and the mixture thereof in Example 1, respectively, or 17.04 μg/mL (30 μM) of lutein for 24 hours. Thereafter, the treated cells were irradiated with blue light (4,000 lux) for 10 minutes. 24 hours after blue light irradiation, cell viability of ARPE-19 cells was measured by a cell counting kit-8 (Dojindo Labs, Japan), and the percentage of cell viability of each treatment group was compared to the control not irradiated with blue light. Lutein was used as a positive control. […] By setting a difference in cell viability between the control not irradiated with blue light and the blue light irradiated group to be 100%, cell protective effects of each extract were estimated by calculating cell protective effects through a difference in cell viability between the blue light irradiated group and the treated group. […]

CC1=C[C@H](O)CC(C)(C)[C@H]1/C=C/C(C)=C/C=C/C(C)=C/C=C/C=C(C)/C=C/C=C(C)/C=C/C1=C(C)C[C@@H](O)CC1(C)C [lutein]
ONL thickness change in administered groups [1]: significantly increased ONL thickness | ONL protective effect (ONL thickness) ([1]; difference control vs blue light group set to 100%): 28.2% | cell protective effect (cell viability) [2]: 48.4%
